Laboratory results reported in patent US7816520B2, “5,6-diphenyl-1,2,4-triazinic dimeric derivatives and the use thereof in the form of sun-protective agents” (Pierre Fabre Dermo-Cosmetique, priority 2004, dated 2010).
“Also recorded” adds a separate entry of the source.

Legend:
Type in all cases: physicochemical
[1] = Photostability in solution in a chemical solvent (Suntest CPS+); details: 25 μg deposited from methanol, absorbance vs non-irradiated control, in % (unit assumed); for Photostability at 5 MED, mean: Suntest irradiation 5 MED; for Photostability at 10 MED, mean: Suntest irradiation 10 MED
Description: A Suntest CPS+(Atlas, Linsengenicht/Altenhasslan, Germany) was used. The Suntest makes it possible to reproduce the solar spectrum and thus to carry out exposures inside at any time without weather constraints.
The radiance of the solar simulator was carefully measured with a spectroradiometer (MSS 2044, Bielefeld, Germany). UVB and UVA intensities were 0.49 mW/cm^2 and 6.32 mW/cm^2, respectively. The MED value defined by COLIPA is 5.6 J/cm^2 in total UV (22). The UV total (UVA+UVB) accounts for 14.8% of the energy delivered by the lamp (power 460 W/m^2). An irradiation dose equivalent to 1 MED corresponds to 37.83 J/cm^2 (in total spectrum) delivered by the lamp.
The Suntest test duration is calculated using the following formula: t=H/E with: • E=illumination energy in W/m^2 • H=irradiation dose in J/m^2 • t=duration of the test in s
The solutions of the compounds are prepared at a concentration of 500 μg/ml in methanol. 50 μl (25 μg) of each solution are deposited in a crystallizer, then irradiated in the Suntest at 5, 10 and/or 20 MED. A non-irradiated control is prepared (deposit of 50 μl of solution and addition of 2.450 ml of methanol). The solvent evaporates during irradiation and the products are taken up in 2.5 ml of methanol. After irradiation, the absorbance of each solution is measured with the UV-visible spectrophotometer (Varian CARY 50 Scan).

[2] = Solubility study in solvents or excipients used in cosmetics; details: for Solubilities: Soluble (solvent in which the compound is soluble): value = solvent; for Solubilities: Insoluble (solvent in which the compound is insoluble): value = solvent named in the Insoluble column; for Solubilities: Soluble, DMSO: solvent DMSO; for Solubilities: Soluble, Transcutol: solvent Transcutol
[3] = Spectral distribution in UVA and UVB, 290 nm to 400 nm; details: for Spectral distribution (UV bands absorbed): absorption spectra, FIGS. 1-3; for Absorption peaks: range from 290 nm to 400 nm
Description: The products tested are classified according to spectral distribution in UVA and UVB in a range from 290 nm to 400 nm. It is possible to differentiate them according to their spectral distribution: Products with a narrow spectrum: • Products absorbing in the range between 280 nm and 320 nm (UVB) • Products absorbing in the range between 320 nm and 400 nm (UVA) Products with a broad spectrum: • Products absorbing in UVB (280-320 nm) and UVA-II […] • Products covering UVB and UVA (280-400 nm).

[4] = Spectral characteristics: molar extinction coefficient and specific absorbance (UV spectrophotometry in ethyl acetate); details: 10 μg/ml; for Maximum molar extinction coefficient UVB / Maximum specific absorbance UVB: UVB band; for Maximum specific absorbance UVB / Maximum specific absorbance UVA: A1cm^1%; for Wavelength of maximum molar extinction coefficient UVB / Wavelength of maximum specific absorbance UVB / Wavelength of maximum molar extinction coefficient UVA / Wavelength of maximum specific absorbance UVA: the 'at ...' part of the cell; for Maximum molar extinction coefficient UVA / Maximum specific absorbance UVA: UVA band
Description: The calculation of the molar extinction coefficient (ε) is made from the Beer-Lambert law:
[formula] Wherein: • A=absorbance • I0=intensity of the incident light • I=intensity of the transmitted light • ε=molar extinction (or molar absorbance) coefficient in M^−1 cm^−1 • l=path length in cm • c=concentration in mol/l
The molar extinction coefficient can be expressed with respect to a given mass of the product. It thus makes it possible to be able to compare the coefficients of extinction between products for the same given quantity. This quantity is 1% by weight. The molar extinction coefficient thus becomes the specific absorbance (A1cm^1%).
It is expressed as follows:
[formula] Wherein: • A1cm^1%=specific absorbance • ε=molar extinction coefficient • M=molar mass
The spectral characteristics of the compounds in comparison with commercial filters at a concentration of 10 μg/ml are summarized in tables 2-1 and 2-2.
Procedure: The products are dissolved in ethyl acetate to a concentration of 10 μg/ml. The spectra are measured using a dual-beam spectrophotometer (Varian CARY 50 Scan) between 290 nm and 400 nm.

Row | Compound | Photostability at 5 MED, mean [1] | Photostability at 10 MED, mean [1] | Solubilities: Soluble (solvent in which the compound is soluble) [2] | Solubilities: Insoluble (solvent in which the compound is insoluble) [2] | Spectral distribution (UV bands absorbed) [3] | Absorption peaks [3] [nm] | Maximum molar extinction coefficient UVB [4] [M⁻¹ cm⁻¹] | Maximum specific absorbance UVB [4] | Wavelength of maximum molar extinction coefficient UVB [4] | Wavelength of maximum specific absorbance UVB [4] | Maximum molar extinction coefficient UVA [4] [M⁻¹ cm⁻¹] | Maximum specific absorbance UVA [4] | Wavelength of maximum molar extinction coefficient UVA [4] | Wavelength of maximum specific absorbance UVA [4] | Solubility (%) ([2]; excipient Finsol V NT ® (C12-C15 alkyl benzoate)) | Solubility (%) ([2]; excipient Isopropyl adipate) | Solubility (%) ([2]; excipient Myritol 318 ® (caprylic/capric triglycerides)) | Solubilities: Soluble, DMSO [2] | Solubilities: Soluble, Transcutol [2]
1 | c1ccc(-c2nnc(-c3cccc(-c4nnc(-c5ccccc5)c(-c5ccccc5)n4)c3)nc2-c2ccccc2)cc1 [WP76, 1,3-bis(5,6-diphenyl-1,2,4-triazin-3-yl)benzene] | 69.23 | 62.53 | DMSO or hot DMF | Water and MeOH and CHCl3 and Acetone and Acetonitrile and Benzene | absorbs in UVB | 290 | 54000 | 998 | at 290 nm | at 290 nm | – | – | – | – | – | – | – | – | –
2 | c1ccc(-c2nnc(-c3ccc(-c4ccc(-c5nnc(-c6ccccc6)c(-c6ccccc6)n5)cc4)cc3)nc2-c2ccccc2)cc1 [WP135] | 57.45 | 33.66 | – | – | absorb in UVB and UVA | 330 | – | – | – | – | 57000 | 924 | at 330 nm | at 330 nm | – | – | – | – | –
3 | CCCCCC[C@H](C)Oc1ccc(-c2nnc(-c3ccc(-c4nnc(-c5ccc(O[C@@H](C)CCCCCC)cc5)c(-c5ccc(O[C@@H](C)CCCCCC)cc5)n4)cc3)nc2-c2ccc(O[C@@H](C)CCCCCC)cc2)cc1 [WP149, 1,4-bis[5,6-bis(4,1-methylheptyloxyphenyl)-1,2,4-triazine-3-yl]benzene] | 80.40 | 38.16 | – | – | – | – | – | – | – | – | – | – | – | – | 4.5 | 2 | 2.5 | – | –
4 | Fc1ccc(-c2nnc(-c3ccc(-c4nnc(-c5ccc(F)cc5)c(-c5ccc(F)cc5)n4)cc3)nc2-c2ccc(F)cc2)cc1 [WP89, 1,4-bis[5,6-(4,4′-difluoro)-diphenyl-1,2,4-triazin-3-yl]benzene] | – | – | Ethyl acetate | – | absorb in UVB and UVA | 330 | – | – | – | – | 47700 | 778 | at 330 nm | at 330 nm | – | – | – | – | –
5 | Cc1ccc(-c2nnc(-c3ccc(-c4nnc(-c5ccc(C)cc5)c(-c5ccc(C)cc5)n4)cc3)nc2-c2ccc(C)cc2)cc1 [WP39, 1,4-bis[5,6-(4,4′-dimethyl)-diphenyl-1,2,4-triazin-3-yl]benzene] | – | – | DMSO or hot DMF | Water and MeOH and CHCl3 and Acetone and Acetonitrile and Benzene | absorb in UVB and UVA | – | – | – | – | – | 48200 | 808 | at 335 nm | at 335 nm | – | – | – | – | –
6 | Clc1ccc(-c2nnc(-c3ccc(-c4nnc(-c5ccc(Cl)cc5)c(-c5ccc(Cl)cc5)n4)cc3)nc2-c2ccc(Cl)cc2)cc1 [WP100, 1,4-bis[5,6-(4,4′-dichloro)-diphenyl-1,2,4-triazin-3-yl]benzene] | – | – | Hot DMSO | DCM and Et2O and Toluene and Octanol and EtOH and Myritol and Transcutol | absorb in UVB and UVA | 300 | – | – | – | – | 43400 | 640 | at 300 nm | at 100 nm | – | – | – | – | –
7 | Oc1ccc(-c2nnc(-c3ccc(-c4nnc(-c5ccc(O)cc5)c(-c5ccc(O)cc5)n4)cc3)nc2-c2ccc(O)cc2)cc1 [WP35, 1,4-bis[5,6-(4,4′-dihydroxy)-diphenyl-1,2,4-triazin-3-yl]benzene] | – | – | – | MeOH and CHCl3 and Ethyl acetate and Hexane and Myritol | absorb in UVB and UVA | 355 | 29600 | 490 | at 310 nm | at 310 nm | 27800 | 460 | at 355 nm | at 355 nm | – | – | – | DMSO 3.5% | Transcutol 0.5%
8 | COc1ccc(-c2nnc(-c3ccc(-c4nnc(-c5ccc(OC)cc5)c(-c5ccc(OC)cc5)n4)cc3)nc2-c2ccc(OC)cc2)cc1 [WP40, 1,4-bis[5,6-(4,4′-dimethoxy)-diphenyl-1,2,4-triazin-3-yl]benzene] | – | – | DMSO or hot DMF | Water and MeOH and CHCl3 and Acetone and Acetonitrile and Benzene | – | – | – | – | – | – | – | – | – | – | – | – | – | – | –
9 | Brc1ccc(-c2nnc(-c3ccc(-c4nnc(-c5ccc(Br)cc5)c(-c5ccc(Br)cc5)n4)cc3)nc2-c2ccc(Br)cc2)cc1 [WP52, 1,4-bis[5,6-(4,4′-dibromo)-diphenyl-1,2,4-triazin-3-yl]benzene] | – | – | DMSO or hot DMF | Water and MeOH and CHCl3 and Acetone and Acetonitrile and Benzene and Myritol and Transcutol | absorb in UVB and UVA | 330 | – | – | – | – | 57300 | 669 | at 330 nm | at 330 nm | – | – | – | – | –
10 | CCCCCCCCCCCCCCCCCCOc1ccc(-c2nnc(-c3ccc(-c4nnc(-c5ccc(OCCCCCCCCCCCCCCCCCC)cc5)c(-c5ccc(OCCCCCCCCCCCCCCCCCC)cc5)n4)cc3)nc2-c2ccc(OCCCCCCCCCCCCCCCCCC)cc2)cc1 [WP38, 1,4-bis[5,6-(4,4′-di-octadecyloxy)-diphenyl-1,2,4-triazin-3-yl]benzene] | – | – | Benzene; also recorded: Toluene; also recorded: Myritol; also recorded: Transcutol | MeOH and DMC and AcOEt | – | – | – | – | – | – | – | – | – | – | – | – | – | – | –
11 | 1,4-bis[5,6-(4,4′-(2-{2-[2-(2-methoxy-ethoxy)-ethoxy]-ethoxy}-ethoxy)-)-diphenyl-1,2,4-triazin-3-yl]benzene [WP41] | – | – | DMC and AcOEt (PS) and MeOH (PS) | EtOH and Hexane and Myritol | absorb in UVB and UVA | – | 72000 | 527 | at 305 nm | at 305 nm | 91400 | 669 | at 330 nm | at 330 nm | – | – | – | DMSO 2.7% | Transcutol 0.1%
